Values quoted from earlier work as cited in US20190151234A1, “STABLE LIQUID PHARMACEUTICAL FORMULATIONS OF BENDAMUSTINE” (priority 2016, published 2019).
Read-outs that look alike come from different tables or passages of the source.

Settings: for time stable: 0.25 mg/ml in 0.9% sodium chloride, Pharmazie 1994

SMILES: Cl.Cn1c(CCCC(=O)O)nc2cc(N(CCCl)CCCl)ccc21 [Bendamustine HCl, Bendamustine hydrochloride]
- time stable (at 4° C.): 5 days
- time stable (at 23° C.): 0.38 days
- stability in aqueous solutions (aqueous solutions, per U.S. Pat. Nos. 8,609,707, 9,265,831): limited to few hours
